The target of the test is T1, Menin MLL 4-43 (Homo sapiens, UniProt O00255).
T1 sequence (O00255 1-610): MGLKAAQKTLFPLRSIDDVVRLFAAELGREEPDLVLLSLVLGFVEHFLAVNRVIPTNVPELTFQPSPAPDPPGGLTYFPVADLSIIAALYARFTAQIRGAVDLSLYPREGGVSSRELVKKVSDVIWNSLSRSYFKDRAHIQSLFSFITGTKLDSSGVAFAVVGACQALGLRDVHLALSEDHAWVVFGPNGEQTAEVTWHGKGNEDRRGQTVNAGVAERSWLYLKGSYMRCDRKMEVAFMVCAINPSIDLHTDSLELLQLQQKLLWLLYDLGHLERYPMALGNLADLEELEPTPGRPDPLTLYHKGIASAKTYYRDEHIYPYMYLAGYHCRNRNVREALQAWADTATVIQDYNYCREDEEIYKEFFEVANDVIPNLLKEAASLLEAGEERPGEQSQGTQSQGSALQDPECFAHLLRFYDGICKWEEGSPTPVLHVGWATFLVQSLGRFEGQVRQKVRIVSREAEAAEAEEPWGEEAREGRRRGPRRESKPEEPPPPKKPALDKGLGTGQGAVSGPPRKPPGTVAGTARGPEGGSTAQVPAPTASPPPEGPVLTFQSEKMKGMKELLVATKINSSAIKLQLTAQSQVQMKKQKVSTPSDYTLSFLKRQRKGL
The test can be described thus: Fluorescence polarization (FP) competition assay of the menin-MLL interaction. The following applies: fluorescence polarization competition with fluorescein-labeled MLL peptide. It is filed as binding. The source says:
This example illustrates an assay effective in monitoring the binding of MLL to menin. […] A fluorescein-labeled peptide containing the high affinity menin binding motif found in MLL was produced according to Yokoyama et al. (Cell, 2005, 123(2): 207-218), herein incorporated by reference in its entirety. Binding of the labeled peptide (1.7 kDa) to the much larger menin (˜67 kDa) is accompanied by a significant change in the rotational correlation time of the fluorophore, resulting in a substantial increase in the fluorescence polarization and fluorescence anisotropy (excitation at 500 nm, emission at 525 nm).
In general terms: Fluorescence polarisation rises when a labelled molecule tumbles more slowly, as on binding a larger partner.
A word on the IC50: it is the concentration needed to halve the response being measured. Higher therefore signals weaker potency in that assay. `CNc1nc(N2CCC3(CCN(Cc4ccc5c(cc(C#N)n5C[C@H](C)N5CCN(S(=O)(=O)NC)CC5)c4C)C3)C2)c2cc(CC(F)(F)F)sc2n1` (stereo partly drawn) [Compound 5] came in with a 50% inhibitory concentration (IC50) of less than 50 nM. Turning to `CNc1nc(N2CCC3CN(Cc4ccc5[nH]c(C#N)cc5c4C)CC3C2)c2cc(CC(F)(F)F)sc2n1` (stereo not drawn) [Compound 153], the half-maximal inhibitory concentration (IC50) was more than 1000 nM. Compound `CNc1nc(N2CC3CCN(CCc4ccccc4)C3C2)c2cc(CC(F)(F)F)sc2n1` (stereo not drawn) [Compound 142] showed a half-inhibitory concentration (IC50) of more than 1000 nM.

The record behind these values is US11649251B2, “Substituted inhibitors of menin-MLL and methods of use” (Kura Oncology, Inc., priority 2017, dated 2023).
